Measured values as given in patent publication US11408016B2, “Amino acid dehydrogenase mutant and application in synthesis of L-glufosinate-ammonium thereof” (ZHEJIANG UNIVERSITY OF TECHNOLOGY, priority 2018, dated 2022).

How the values were obtained:
[1] = biological target: Pseudomonas monteilii amino acid dehydrogenase DyGDH variant pDyGDH-F95I-A108T-R172P-R303H (F95I/A108T/R172P/R303H of SEQ ID No. 2) (Pseudomonas promysalinigenes, UniProt A0ABY6AJQ3, A108T/F95I/R172P/R303H); assay: Kinetic parameter determination, pDyGDH-F95I-A108T-R172P-R303H; assay type: biochemical
Experimental: (§1) The gene of the amino acid dehydrogenase cloned from Pseudomonas monteilii WP_060477601.1 (the nucleotide sequence is shown in SEQ ID No. 1, and the amino acid sequence is shown in SEQ ID No. 2) was used to construct the expression vector pETDEut-dygdh, then the obtained vector was transformed into E. coli to obtain the original strain E. coli BL21(DE3)/pETDEut-dygdh.
The mutant proteins were purified by Ni-NTA column (1.6×10 cm, Bio-Rad, the USA), and the specific operation was carried out as follows: (1) a Ni column was equilibrated with 5 column volumes of binding buffer (pH 8.0, 50 mM sodium phosphate buffer containing 0.3 M NaCl) until the baseline was steady; (2) the sample was loaded with a flow rate of 1 mL/min, the amount of the loading sample was 25-40 mg/mL calculated by the volume of the column, thereby attaching the target protein to the Ni column; (3) the column was washed with 6 column volumes of buffer A (pH 8.0, 50 mM sodium phosphate buffer containing 0.3 M NaCl and 30 mM imidazole) at a flow rate of 1 mL/min until the baseline was steady; (4) the column was washed with buffer B (pH 8.0, 50 mM sodium phosphate buffer containing 0.3 M NaCl and 500 mM imidazole) at a flow rate of 1 mL/min, the target protein was collected and dialyzed overnight in a pH 7.5, 20 mM phosphate buffer, thereby obtaining the pure enzyme; and (5) the Ni column was washed with 5 column volumes of binding buffer (pH 8.0, 50 mM sodium phosphate buffer containing 0.3 M NaCl) until the baseline was steady, and the Ni column was stored in 5 column volumes of ultrapure water containing 20% ethanol.
Kinetic parameters of the amino acid hydrogenase and its mutants were examined, 2-carbonyl-4-(hydroxymethylphosphinyl)-butyric acid was taken as substrate, the concentration was set as 2-10 mM (2, 4, 6, 8, 10 mM), the concentration of exogenous coenzyme NADPH was set as 1-5 mM (1, 2, 3, 4, 5 mM), 100 uL of pure enzyme solution was added (according to Example 4).
(§2) The reaction system was 500 μL, the pure enzyme solution collected in Example 4 was diluted 10 times with pH 7.4, 100 mM phosphate buffer, then 100 μL of the resulting solution was sampled, added with the substrate and exogenous coenzyme NADPH, pH 7.4, 100 mM phosphate buffer was taken as a reaction medium, after reacting at 35° C. and 600 rpm for 10 min, the concentration of L-glufosinate-ammonium in the reacting solution was determined by HPLC (according to Example 4).
(§3) According to the sequential mechanism of amino acid dehydrogenase's catalytic reaction, vmax, Km^A, Km^B can be calculated by dual-reciprocal graph, the results were shown in Table 4.

[2] = biological target: T1, Pseudomonas monteilii amino acid dehydrogenase DyGDH (WP_060477601.1), original pDyGDH, SEQ ID No. 2 (Pseudomonas promysalinigenes, UniProt A0ABY6AJQ3); assay: Kinetic parameter determination, original pDyGDH; assay type: biochemical; conditions: pH 7.4, 35° C.
T1 sequence (A0ABY6AJQ3 1-446): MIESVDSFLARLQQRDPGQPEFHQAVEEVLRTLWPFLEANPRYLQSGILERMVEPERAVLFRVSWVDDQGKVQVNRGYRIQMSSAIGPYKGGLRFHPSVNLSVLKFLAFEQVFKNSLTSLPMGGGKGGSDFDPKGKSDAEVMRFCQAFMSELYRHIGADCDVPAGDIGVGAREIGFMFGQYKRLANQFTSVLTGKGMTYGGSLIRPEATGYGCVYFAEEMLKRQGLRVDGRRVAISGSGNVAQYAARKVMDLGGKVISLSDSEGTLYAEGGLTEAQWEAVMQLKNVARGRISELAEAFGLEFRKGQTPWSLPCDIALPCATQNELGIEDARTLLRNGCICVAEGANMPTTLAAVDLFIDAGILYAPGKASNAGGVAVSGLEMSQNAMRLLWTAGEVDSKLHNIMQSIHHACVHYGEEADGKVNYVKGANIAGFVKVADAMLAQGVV
Experimental: as §1, with “BL21(DE3)/pETDEut-dygdh. […]” for “BL21(DE3)/pETDEut-dygdh.”
as §2, §3

SMILES: NC(=O)C1=CN([C@@H]2O[C@H](COP(=O)(O)OP(=O)(O)OC[C@H]3O[C@@H](n4cnc5c(N)ncnc54)[C@H](OP(=O)(O)O)[C@@H]3O)[C@@H](O)[C@H]2O)C=CC1 [NADPH]
- kcat/Km^A (NADPH) ([1]; pH 7.4, 35° C.): 1.43823e+07 M⁻¹ s⁻¹
- catalytic efficiency on coenzyme NADPH, times higher than that of the original enzyme ([1]; versus original pDyGDH): 37.3 times
- kcat/Km^A (NADPH) [2]: 385670 M⁻¹ s⁻¹

SMILES: CP(=O)(O)CCC(=O)C(=O)O [2-carbonyl-4-(hydroxymethylphosphinyl)-butyric acid]
- kcat/Km^B (2-carbonyl-4-(hydroxymethylphosphinyl)-butyric acid) ([1]; pH 7.4, 35° C.): 363100 M⁻¹ s⁻¹
- catalytic efficiency kcat/Km^B on 2-carbonyl-4-(hydroxymethylphosphinyl)-butyric acid, times higher than that of the original enzyme ([1]; versus original pDyGDH): 29.3 times
- kcat/Km^B (2-carbonyl-4-(hydroxymethylphosphinyl)-butyric acid) [2]: 12410 M⁻¹ s⁻¹
